This data set can be described thus: Previous/initial in vivo pharmacokinetic assessments of MRS2365 in mice.

For `CSc1nc(N)c2ncn([C@H]3[C@H](O)[C@H](O)[C@]4(COP(=O)(O)OP(=O)(O)O)C[C@H]34)c2n1` [MRS2365], the “circulating and brain concentrations of MRS2365” value (following intraperitoneal or intravenous administration, previous studies) is “no detectable”. In addition, under “mice, heparin as blood anticoagulant for plasma preparation”, the clearance in vivo entry was “rapidly cleared at a rate approximating cardiac output”.

(Values after US12239654B2, “Compounds and methods for treating neurological and cardiovascular conditions” (Astrocyte Pharmaceuticals, Inc., priority 2016, dated 2025).)
